The values that follow come from US20110183336A1, “Method to Predict Responsiveness of Breast Cancer to Polyamine-Type Chemotherapy” (THE REGENTS OF THE UNIVERSITY OF CALIFORNIA, priority 2007, published 2011).

One experiment relates to CAMA1. In words: Cell growth inhibition assay (Cell Titer Glo). The format is cell-based, human. As to conditions: CAMA1, Luminal, 72 h. The protocol: (§1) Cell culture: Breast cell lines were obtained from the ATCC and from collections developed in the laboratories of Drs. Steve Ethier and Adi Gazdar.
(§2) Cell growth inhibition assay and data analysis: Cells were plated at proper density in 96-well plates such that they would remain in log growth at the end of assay time. The cells were allowed to attach overnight before being exposed to CGC-11047 for 72 h. Drugs were dissolved in water as 100 mM stock. For the dose response study, a set of 9 doses from 5×10^−3 to 1.3×10^−8 M (final concentration) in 1:5 serial dilution were added in triplicate wells. The final DMSO concentration in the treated well was 0.3% or less. The cell growth was determined using Cell Titer Glo (CTG) assay (CellTiter-Glo Luminescent Cell Viability Assay, Promega, Madison, Wis.), with slight modification form manufacturer's protocol, at day 0 (time when drug was added) and at day 3 of drug exposure. Briefly, CTG reagent was diluted with PBS (1:1, volume: volume) and the culture media was removed from the 96-well plate prior to adding 50 μl per well of the diluted CTG reagent. Luminescence from the assay was recorded using BIO-TEK FLx800.
(§3) Data calculations were made according to the method described by the NCI/NIH DTP Human Tumor Cell Line Screen Process (http://dtp.nci.nih.gov/branches/btb/ivclsp.html) and as described previously (Monks, A et al., JNCI 83:757-766, 1991). The percent growth curve is calculated as [(T−T0)/(C−T0)]×100, where T0 is the cell count at day 0, C is the vehicle control (e.g. 0.3% DMSO without drug) cell count at day 3, and T is the cell count at the test concentration. The GI50 and TGI value are determined as the drug concentration that results in a 50% and 0% growth at 72 h drug exposure. LC50 is calculated as [(T−T0)/T0]×100=−50, when T<T0.

In another experiment the test system is MDAMB175VII. In words: Cell growth inhibition assay (Cell Titer Glo). It is filed as cell-based, human. The conditions noted are these: Luminal, 72 h. The protocol:
as §1, §2, §3
In general terms: Cellular ATP, detected with luciferase, serves as a proxy for viable cell number.

A further experiment has as its system ZR7530. In words: Cell growth inhibition assay (Cell Titer Glo). It is filed as cell-based, human. The conditions noted are these: ZR7530, Luminal, 72 h. The protocol: as §1, §2, §3
In a further experiment the test system is MDAMB361. In words: Cell growth inhibition assay (Cell Titer Glo). It is filed as cell-based, human. As to conditions: MDAMB361, Luminal, 72 h. The protocol: as §1, §2, §3
The test system of another experiment is SUM52PE. In words: Cell growth inhibition assay (Cell Titer Glo). The format is cell-based, human. As to conditions: Luminal, 72 h. The protocol: as §1, §2, §3
For another experiment, the system named is MDAMB231. In words: Cell growth inhibition assay (Cell Titer Glo). It is filed as cell-based, human. As to conditions: MDAMB231, Basal B, 72 h. The protocol:
as §1, §2, §3

For the next experiment, the system named is LY2. In words: Cell growth inhibition assay (Cell Titer Glo). As to conditions: LY2, Luminal, 72 h. The format is cell-based, human. The protocol:
as §1, §2, §3

For another experiment, the system named is T4. In words: Cell growth inhibition assay (Cell Titer Glo). It is filed as cell-based, human. The conditions noted are these: T4, Basal B, 72 h. The protocol: as §1, §2, §3
A further experiment concerns AU565. In words: Cell growth inhibition assay (Cell Titer Glo). It is filed as cell-based, human. The conditions noted are these: AU565, Luminal, 72 h. The protocol:
as §1, §2, §3

Experiment [1] relates to panel of 42 breast cancer cell lines and 6 non-cancerous breast cell lines. In words: Cell growth inhibition assay, whole panel. The conditions noted are these: whole breast cell line panel, 72 h. It is filed as cell-based.
Description: To better delineate the response of breast cancer cells to conformationally-restricted polyamines, we studied the anti-proliferation activity of CGC-11047 (SL-11047 or Compound 58 in Table 1) among the panel of 42 breast cancer cell lines and 6 non-cancerous breast cell lines (e.g., human mammary epithelial cells, HMEC) of known subtype (basal or luminal) with a plethora of genomic background mimicking the human breast tumors. Extensive genomic background of these cell lines have been reported by Neve et al. (2006).
as §1
Cell growth inhibition assay and data analysis: Cells were plated at proper density in 96-well plates such that they would remain in log growth at the end of assay time. The cells were allowed to attach overnight before being exposed to CGC-11047 for 72 h. Drugs were dissolved in water as 100 mM stock. […] The cell growth was determined using Cell Titer Glo (CTG) assay (CellTiter-Glo Luminescent Cell Viability Assay, Promega, Madison, Wis.), with slight modification form manufacturer's protocol, at day 0 (time when drug was added) and at day 3 of drug exposure. […] Luminescence from the assay was recorded using BIO-TEK FLx800. […]

The test system of experiment [2] is HCC70 cells. In words: BrdU incorporation and cell cycle distribution. It is filed as cell-based, human. The conditions noted are these: select sensitive cell lines except T47D (FIG. 4: HCC70); 0.3, 10 and 300 uM; 48 and 72 hrs. The protocol: (§4) FIGS. 4A and 4B. Effect of CGC-11047 on HCC70 cells with respect to cell cycle and apoptosis. In FIG. 4A, cells were treated for 72 hours with 0, 0.3, 10, or 100 μM CGC-11047. Shown are percentage of the cell population is G0-G1, S, or G2-M phase of cell growth. In FIG. 4B, cells were treated for 42, 48, or 72 hours with 0.3, 10, or 300 μM CGC-11047. Shown is the caspase activity (apoptosis) of treated cells within each condition compared to untreated controls.
BrdU cell staining and labeling: After incubation of cells with CGC-11047 at specified concentrations for 24, 48, and 72 hours, cells were pulsed with a final BrdU concentration of 10 uM for 30 minutes. Cells were then fixed with −20° C. 70% ethanol overnight. Fixed cells were incubated with 2N HCl for 5-7 minutes to denature DNA. Cell were then rinsed with 1× PBS to neutralize HCl.
Cells were incubated with primary donkey anti-BrdU antibody (diluted 1:100 in 0.5% PBS-tween20) for 1 hour then rinsed well with 0.5% PBS-tween20. Cells were incubated with Hoechst 33642 (diluted 1:2000) and secondary anti-donkey antibody (diluted 1:500) for 45 minutes and washed well with PBS-tween. […]
(§5) Select sensitive cell lines were treated with CGC-11047 at 0.3, 10 and 300 uM. BrdU incorporation was measured and cell cycle distribution was analyzed at 48 and 72 hrs. Apoptosis was measured using the Promega Caspase Glo 3/7 assay.
For orientation: Dividing cells build labelled thymidine or BrdU into new DNA.

The subject of experiment [3] is HCC70 cells. The experiment in a line: Caspase Glo 3/7 assay (apoptosis). As to conditions: select sensitive cell lines except T47D (FIG. 4: HCC70); 0.3, 10 and 300 uM. It is filed as cell-based, human. The protocol: as §4
Caspase Glo assay: Apoptosis was measured using the Promega Caspase Glo 3/7 assay (Promega, Madison, Wis.). Lyophilized pellet was eluted in solvent to make working Caspase Glo reagent. After incubation of cells with CGC-11047 at specified concentrations for 24, 48, and 72 hours, 50 ul of Caspase Glo reagent was added to the wells. After an incubation time of 1 hour, luminescence was measured using a luminometer.
as §5

Where two headings read alike, the source gives them in different places.

On to `CCNCCCNC/C=C\CNCCCNCC` [CGC-11047], for which the concentration for total growth inhibition (TGI) in the experiment with CAMA1 was 1100 µM; in the experiment on MDAMB175VII, 2000 µM; in the experiment on ZR7530, 1000 µM; with MDAMB361 it was 2000 µM; with SUM52PE, 300 µM; in the experiment on MDAMB231 it was over 5000 µM. For the same molecule, the entries for the “TGI” value in the experiment on LY2, in the experiment with T4 and with AU565 were 3000 µM, 800 µM and over 30 µM, respectively. For the same molecule, the GI50 amounted to 350 µM with CAMA1 (Homo sapiens, CAMA-1); 1000 µM with MDAMB175VII (Homo sapiens, MDA-MB-175-VII); 0.8 µM in the experiment on ZR7530 (Homo sapiens, ZR-75-30); 600 µM in the experiment with MDAMB361 (Homo sapiens, MDA-MB-361); 10 µM in the experiment on SUM52PE (Homo sapiens); 2000 µM with MDAMB231 (Homo sapiens, MDA-MB-231). The GI50 in the experiment with LY2 (Homo sapiens) is 1300 µM; with T4 (Homo sapiens) it was 2 µM; with AU565 (Homo sapiens) it was 40 µM; in experiment [1] (Homo sapiens, read-out: median GI50), about 40 µM; in [1] (units given in the value, read-out: GI50 range of the cell lines tested) it was 0.4 to 5000 µM. Besides, the “cell cycle distribution / BrdU incorporation” value in the experiment on HCC70 cells [2] is listed as “growth inhibition is mainly caused by the delay in cell cycle, a G1 arrest”. Besides, the “apoptosis (caspase 3/7 activity)” value with HCC70 cells [3] was “very little apoptosis detected”.

A word on the TGI: it is the concentration giving total growth inhibition. The term GI50 denotes the concentration giving 50% growth inhibition.
